# Reference: patent publication US20260285850A1, “SUBSTITUTED OXAZOLIDINONES AND IMIDAZOLINONES AS HERBICIDES” (FMC CORPORATION, priority 2023, published 2026)
# Columns and labels:
# Type in all cases: in vivo
# [1] = tested on: barnyardgrass (Echinochloa crus-galli); assay: Test A preemergence soil spray, visual injury rating 0-100; conditions: 10 days
# How it was run: (§1)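 Directed preemergence spray onto seeded soil or postemergence spray onto 2-10 cm plants (loam plus sand); compound carried in surfactant-containing non-phytotoxic solvent. Injury rated by eye after 10 d greenhouse growth; 0 = no effect, 100 = complete control.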
# [2] = tested on: green foxtail (Setaria viridis); assay: as above; conditions: 10 days
# How it was run: as §1
# [3] = tested on: ryegrass, Italian (italian ryegrass, Lolium multiflorum); assay: as above; conditions: 10 days
# How it was run: as §1
# [4] = tested on: wheat (Triticum aestivum); assay: as above; conditions: 10 days
# How it was run: as §1
# [5] = tested on: palmer (palmer amaranth, palmer pigweed, Amaranthus palmeri); assay: as above; conditions: 10 days
# How it was run: as §1
# [6] = tested on: corn (Zea mays); assay: as above; conditions: 10 days
# How it was run: as §1
# [7] = tested on: soybean (Glycine max); assay: as above; conditions: 10 days
# How it was run: as §1
# [8] = tested on: kochia (Bassia scoparia); assay: as above; conditions: 10 days
# How it was run: as §1
# [9] = tested on: ragweed (common ragweed, Ambrosia artemisiifolia); assay: as above; conditions: 10 days
# How it was run: as §1
# [10] = tested on: blackgrass (Alopecurus myosuroides); assay: as above; conditions: 10 days
# How it was run: as §1
# [11] = tested on: oat, wild (wild oat, Avena fatua); assay: as above; conditions: 10 days
# How it was run: as §1
# [12] = tested on: barnyardgrass (Echinochloa crus-galli); assay: Test A postemergence application, visual injury rating 0-100
# How it was run: as §1
# [13] = tested on: green foxtail (Setaria viridis); assay: as above
# How it was run: as §1
# [14] = tested on: galium (catchweed bedstraw, Galium aparine); assay: as above
# How it was run: as §1
# [15] = tested on: ryegrass, Italian (italian ryegrass, Lolium multiflorum); assay: as above
# How it was run: as §1
# [16] = tested on: wheat (Triticum aestivum); assay: as above
# How it was run: as §1
# [17] = tested on: palmer (palmer amaranth, palmer pigweed, Amaranthus palmeri); assay: as above
# How it was run: as §1
# [18] = tested on: corn (Zea mays); assay: as above
# How it was run: as §1
# [19] = tested on: soybean (Glycine max); assay: as above
# How it was run: as §1
# [20] = tested on: kochia (Bassia scoparia); assay: as above
# How it was run: as §1
# [21] = tested on: ragweed (common ragweed, Ambrosia artemisiifolia); assay: as above
# How it was run: as §1
# [22] = tested on: blackgrass (Alopecurus myosuroides); assay: as above
# How it was run: as §1
# [23] = tested on: oat, wild (wild oat, Avena fatua); assay: as above
# How it was run: as §1
# [24] = tested on: sedge, umbrella (small-flower umbrella sedge, Cyperus difformis); assay: Test B flooded paddy test, visual plant response rating 0-100; conditions: 250 g ai/ha, Flood, applied to paddy water, evaluated after 13 days
# How it was run: (§2)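 In this flooded assay, 2-leaf seedlings received compound through the water layer, kept at 3 cm over the soil. Plants were held 13 days in a greenhouse and then visually compared with control pots.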
# [25] = tested on: rice (Oryza sativa); assay: as above; conditions: 250 g ai/ha, Flood, applied to paddy water, evaluated after 13 days
# How it was run: as §2
# [26] = tested on: ducksalad (Heteranthera limosa); assay: as above; conditions: 250 g ai/ha, Flood, applied to paddy water, evaluated after 13 days
# How it was run: as §2
# [27] = tested on: barnyardgrass (Echinochloa crusgalli); assay: as above; conditions: 250 g ai/ha, Flood, applied to paddy water, evaluated after 13 days
# How it was run: as §2
# [28] = 62 g ai/ha, 0 = no effect, 100 = complete control
# [29] = 62 g ai/ha, postemergence, 10 days, 0 = no effect, 100 = complete control
# [30] = Postemergence, 16 g ai/ha, greenhouse 10 days, 0 no effect, 100 complete control
structure (smiles),measurement,setting,value
C=CC1(C(=O)NC2COC(C(=O)OC)C2)CN(c2cc(F)cc(F)c2)C(=O)O1 (centres unmarked) [Compound 171],Barnyardgrass plant response rating,"[1]; 16 g ai/ha, 0 to 100 scale",0
same,Barnyardgrass plant response rating (0-100),[1]; [28],90
same,"Foxtail, Green plant response rating","[2]; 16 g ai/ha, 0 to 100 scale",0
same,"Foxtail, Green plant response rating (0-100)",[2]; [28],90
same,"Ryegrass, Italian plant response rating","[3]; 16 g ai/ha, 0 to 100 scale",20
same,"Ryegrass, Italian plant response rating (0-100)",[3]; [28],90
same,Wheat plant response rating,"[4]; 16 g ai/ha, 0 to 100 scale",60
same,Wheat plant response rating (0-100),[4]; [28],90
same,"Pigweed, Palmer plant response rating","[5]; 16 g ai/ha, 0 to 100 scale",0
same,"Pigweed, Palmer plant response rating (0-100)",[5]; [28],70
same,Corn plant response rating,"[6]; 16 g ai/ha, 0 to 100 scale",0
same,Corn plant response rating (0-100),[6]; [28],40
same,Soybean plant response rating,"[7]; 16 g ai/ha, 0 to 100 scale",0
same,Soybean plant response rating (0-100),[7]; [28],20
same,Kochia plant response rating,"[8]; 16 g ai/ha, 0 to 100 scale",30
same,Kochia plant response rating (0-100),[8]; [28],40
same,Ragweed plant response rating,"[9]; 16 g ai/ha, 0 to 100 scale",0
same,Ragweed plant response rating (0-100),[9]; [28],0
same,Blackgrass plant response rating,"[10]; 16 g ai/ha, 0 to 100 scale",20
same,Blackgrass plant response rating (0-100),[10]; [28],90
same,"Oat, Wild plant response rating","[11]; 16 g ai/ha, 0 to 100 scale",20
same,"Oat, Wild plant response rating (0-100)",[11]; [28],90
same,Barnyardgrass plant response rating (0-100),[12]; [29],80
same,Barnyardgrass plant response rating (0 to 100 scale),[12]; [30],70
same,"Foxtail, Green plant response rating (0-100)",[13]; [29],90
same,"Foxtail, Green plant response rating (0 to 100 scale)",[13]; [30],80
same,Galium plant response rating (0-100),[14]; [29],80
same,Galium plant response rating (0 to 100 scale),[14]; [30],80
same,"Ryegrass, Italian plant response rating (0-100)",[15]; [29],70
same,"Ryegrass, Italian plant response rating (0 to 100 scale)",[15]; [30],20
same,Wheat plant response rating (0-100),[16]; [29],90
same,Wheat plant response rating (0 to 100 scale),[16]; [30],80
same,"Pigweed, Palmer plant response rating (0-100)",[17]; [29],80
same,"Pigweed, Palmer plant response rating (0 to 100 scale)",[17]; [30],60
same,Corn plant response rating (0-100),[18]; [29],90
same,Corn plant response rating (0 to 100 scale),[18]; [30],80
same,Soybean plant response rating (0-100),[19]; [29],80
same,Soybean plant response rating (0 to 100 scale),[19]; [30],70
same,Kochia plant response rating (0-100),[20]; [29],80
same,Kochia plant response rating (0 to 100 scale),[20]; [30],60
same,Ragweed plant response rating (0-100),[21]; [29],30
same,Ragweed plant response rating (0 to 100 scale),[21]; [30],30
same,Blackgrass plant response rating (0-100),[22]; [29],70
same,Blackgrass plant response rating (0 to 100 scale),[22]; [30],70
same,"Oat, Wild plant response rating (0-100)",[23]; [29],90
same,"Oat, Wild plant response rating (0 to 100 scale)",[23]; [30],90
same,"Plant response rating, Sedge, Umbrella (0 to 100 scale, 0 is no effect and 100 is complete control)",[24],45
same,"Plant response rating, Rice (0 to 100 scale, 0 is no effect and 100 is complete control)",[25],45
same,"Plant response rating, Ducksalad (0 to 100 scale, 0 is no effect and 100 is complete control)",[26],50
same,"Plant response rating, Barnyardgrass (0 to 100 scale, 0 is no effect and 100 is complete control)",[27],60
